Here are results for 2 compounds from ChEMBL document CHEMBL1156053, “Design, synthesis, protein-ligand X-ray structure, and biological evaluation of a series of novel macrocyclic human immunodeficiency virus-1 protease inhibitors to combat drug resistance” (J Med Chem, 2009).

In experiment [1] the test system is Human immunodeficiency virus 1. The experiment in a line: Antiviral activity against lopinavir-resistant HIV1 NL4-3. The format is functional, organism-based. As to conditions: Human immunodeficiency virus 1, NL4-3.
The subject of experiment [2] is Human immunodeficiency virus 1. Briefly: Antiviral activity against indinavir-resistant HIV1 NL4-3. The format is functional, organism-based. As to conditions: Human immunodeficiency virus 1, NL4-3.
The test system of experiment [3] is Human immunodeficiency virus 1. The experiment in a line: Antiviral activity against saquinavir-resistant HIV1 NL4-3. In kind it is functional, organism-based. To be noted: Human immunodeficiency virus 1, NL4-3.
In experiment [4] the test system is Human immunodeficiency virus 1. The experiment in a line: Selectivity ratio of IC50 for multidrug-resistant HIV1 isolate C to IC50 for wild type HIV1 isolate ERS104pre. The format is functional.
Experiment [5] has as its system Human immunodeficiency virus 1. Briefly: Selectivity ratio of IC50 for multidrug-resistant HIV1 isolate JSL to IC50 for wild type HIV1 isolate ERS104pre. In kind it is functional.
The subject of experiment [6] is Human immunodeficiency virus 1. Briefly: Antiviral activity against multidrug-resistant HIV1 isolate B infected in PHA-stimulated human PBMC assessed as inhibition of p24 […] protein production. As to conditions: Human immunodeficiency virus 1, isolate B. The format is functional, organism-based.
Experiment [7] has as its system Human immunodeficiency virus 1. Briefly: Selectivity ratio of IC50 for multidrug-resistant HIV1 isolate TM to IC50 for wild type HIV1 isolate ERS104pre. The format is functional.
In experiment [8] the test system is Human immunodeficiency virus 1. The experiment in a line: Antiviral activity against multidrug-resistant HIV1 isolate C infected in PHA-stimulated human PBMC assessed as inhibition of p24 […] protein production. As to conditions: Human immunodeficiency virus 1, isolate C. The format is functional, organism-based.
Experiment [9] has as its system Human immunodeficiency virus 1. Briefly: Antiviral activity against multidrug-resistant HIV1 isolate JSL infected in PHA-stimulated human PBMC assessed as inhibition of p24 […] protein production. In kind it is functional, organism-based. To be noted: Human immunodeficiency virus 1, isolate JSL.
Experiment [10] relates to Human immunodeficiency virus 1. Briefly: Antiviral activity against multidrug-resistant HIV1 isolate TM infected in PHA-stimulated human PBMC assessed as inhibition of p24 […] protein production. To be noted: Human immunodeficiency virus 1, isolate TM. In kind it is functional, organism-based.
For experiment [11], the system named is Human immunodeficiency virus 1. The experiment in a line: Antiviral activity against wild type HIV1 isolate ERS104pre infected in PHA-stimulated human PBMC assessed as inhibition of p24 […] protein production. In kind it is functional, organism-based. To be noted: Human immunodeficiency virus 1, isolate ERS104pre.
Experiment [12] concerns Human immunodeficiency virus 1. The experiment in a line: Selectivity ratio of IC50 for multidrug-resistant HIV1 isolate G to IC50 for wild type HIV1 isolate ERS104pre. The format is functional.
For experiment [13], the system named is Human immunodeficiency virus 1. The experiment in a line: Antiviral activity against multidrug-resistant HIV1 isolate MM infected in PHA-stimulated human PBMC assessed as inhibition of p24 […] protein production. As to conditions: Human immunodeficiency virus 1, isolate MM. In kind it is functional, organism-based.
Experiment [14] concerns Human immunodeficiency virus 1. Briefly: Selectivity ratio of IC50 for multidrug-resistant HIV1 isolate MM to IC50 for wild type HIV1 isolate ERS104pre. The format is functional.
Experiment [15] concerns Human immunodeficiency virus 1. The experiment in a line: Antiviral activity against multidrug-resistant HIV1 isolate G infected in PHA-stimulated human PBMC assessed as inhibition of p24 […] protein production. In kind it is functional, organism-based. To be noted: Human immunodeficiency virus 1, isolate G.
Experiment [16] deals with Human immunodeficiency virus 1. The experiment in a line: Selectivity ratio of IC50 for multidrug-resistant HIV1 isolate B to IC50 for wild type HIV1 isolate ERS104pre. In kind it is functional.

The IC50 is the concentration that inhibits the measured activity by half.

Take `COc1ccc2c(c1)OCCC=CCCCCN(C[C@@H](O)[C@H](Cc1ccccc1)NC(=O)O[C@H]1CO[C@H]3OCC[C@H]31)S2(=O)=O`: the IC50 in [1], in [2] and in experiment [3] was 20 nM in each case.
In the case of `Cc1cccc(C)c1OCC(=O)N[C@@H](Cc1ccccc1)[C@@H](O)C[C@H](Cc1ccccc1)NC(=O)[C@H](C(C)C)N1CCCNC1=O` [LOPINAVIR], the “Ratio IC50” value in experiment [4] is on record as >29; in experiment [5] it was >29; in [7], >29; in [12], 8; in experiment [14] it was >29; in [16] it was >29. Also, the IC50 in experiment [6] is > 1000 nM; in [8], > 1000 nM; in experiment [9], > 1000 nM; in experiment [10], > 1000 nM; in experiment [11], 34 nM; in [13], > 1000 nM. In experiment [15], the IC50 was 260 nM.
